target: T1, human CRHR2-alpha (Homo sapiens, UniProt Q13324); assay: cAMP functional assay for human CRHR2 (LANCE Ultra cAMP, TR-FRET); assay type: cell-based; conditions: CHO-K1 cells expressing human CRHR2-alpha, agonist human urocortin2 at EC80, cAMP; read-out: IC50 against CRHR2
T1 sequence (Q13324 1-411): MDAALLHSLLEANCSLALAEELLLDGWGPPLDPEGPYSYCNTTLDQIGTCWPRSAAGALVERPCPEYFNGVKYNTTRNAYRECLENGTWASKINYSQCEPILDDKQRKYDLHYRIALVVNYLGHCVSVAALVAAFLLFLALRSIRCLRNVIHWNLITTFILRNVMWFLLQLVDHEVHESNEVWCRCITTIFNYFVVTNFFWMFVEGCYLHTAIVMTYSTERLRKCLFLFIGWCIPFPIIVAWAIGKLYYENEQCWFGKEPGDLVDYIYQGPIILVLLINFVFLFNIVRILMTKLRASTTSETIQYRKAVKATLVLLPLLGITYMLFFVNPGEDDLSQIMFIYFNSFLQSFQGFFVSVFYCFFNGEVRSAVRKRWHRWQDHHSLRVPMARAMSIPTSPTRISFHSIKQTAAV
Outline: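 First, starved and frozen CHO-K1 cells expressing the receptor are thawed into IBMX-containing HBSS buffer (pH 7.4). Next, compounds are added for 30 min at 25° C. Then agonist at EC80 (urocortin2 or CRF, per receptor) is added for another 30 min, followed by cAMP detection reagents.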

| SMILES | IC50 |
| --- | --- |
| Cc1ncc(Cl)cc1C(=O)N[C@H]1CC[C@H](Cn2c(=O)n(-c3ccc4nn(C5COC5)nc4c3)c3ccccc32)CC1 [Example 340, 5-chloro-2-methyl-N-((1r,4r)-4-((3-(2-(oxetan-3-yl)-2H-benzo[d][1,2,3]triazol-5-yl)-2-oxo-2,3-dihydro-1H-benzo [d]imidazol-1-yl)methyl)cyclohexyl)nicotinamide] | < 0.3 µM |
| Cc1ncc(Cl)cc1C(=O)N[C@H]1CC[C@H](Cn2c(=O)n(-c3ccncc3Cl)c3ccccc32)CC1 [Example 262, 5-chloro-N-((1r,4r)-4-((3-(3-chloropyridin-4-yl)-2-oxo-2,3-dihydro-1H-benzo[d]imidazol-1-yl)methyl)cyclo-hexyl)-2-methylnicotinamide] | < 0.3 µM |
| Cc1ncc(Cl)cc1C(=O)N[C@H]1CC[C@H](Cn2c(=O)n(-c3cnc4[nH]ccc4c3)c3ccccc32)CC1 [Example 408, 5-chloro-2-methyl-N-((1r,4r)-4-((2-oxo-3-(1H-pyrrolo[2,3-b]pyridin-5-yl)-2,3-dihydro-1H-benzo[d]imidazol-1-yl)methyl)cyclohexyl)nicotinamide] | < 0.3 µM |
| Cc1ncc(Cl)cc1C(=O)N[C@H]1CC[C@H](Cn2c(=O)n(-c3ccc4c(c3)nnn4C3COC3)c3ccccc32)CC1 [Example 341, 5-chloro-2-methyl-N-((1r,4r)-4-((3-(1-(oxetan-3-yl)-1H-benzo[d][1,2,3]triazol-5-yl)-2-oxo-2,3-dihydro-1H-benzo[d]imidazol-1-yl)methyl)cyclohexyl)nicotinamide] | < 0.3 µM |
| COc1ccc(-n2c(=O)n(C[C@H]3CC[C@H](NC(=O)c4cc(Cl)cnc4C(F)F)CC3)c3cnccc32)cc1F [Example 724, 5-chloro-2-(difluoromethyl)-N-((1r,4r)-4-((1-(3-fluoro-4-methoxyphenyl)-2-oxo-1H-imidazo[4,5-c]pyridin-3(2H)-yl)methyl)cyclohexyl) nicotinamide] | < 0.3 µM |
| Cn1ccc(-c2ccc(-n3c(=O)n(C[C@H]4CC[C@H](NC(=O)c5cc(Cl)cnc5C(F)F)CC4)c4ccccc43)cn2)n1 [Example 737, 5-chloro-2-(difluoromethyl)-N-((1r,4r)-4-((3-(6-(1-methyl-1H-pyrazol-3-yl)pyridin-3-yl)-2-oxo-2,3-dihydro-1H-benzo[d]imidazol-1-yl)methyl)cyclohexyl)nicotinamide] | < 0.3 µM |
| Cc1ncc(Cl)cc1C(=O)N[C@H]1CC[C@H](Cn2c(=O)n(-c3ccc(NC4CC(F)(F)C4)nc3)c3ccccc32)CC1 [Example 108, 5-chloro-N-((1r,4r)-4-((3-(6-((3,3-difluorocyclobutyl)amino)pyridin-3-yl)-2-oxo-2,3-dihydro-1H-benzo[d]imidazol-1-yl)methyl)cyclohexyl)-2-methylnicotinamide] | < 0.3 µM |
| Cc1n[nH]c2ccc(-n3c(=O)n(C[C@H]4CC[C@H](NC(=O)c5cc(Cl)cnc5C(F)F)CC4)c4cccnc43)cc12 [Example 576, 5-chloro-2-(difluoromethyl)-N-((1r,4r)-4-((3-(3-methyl-1H-indazol-5-yl)-2-oxo-2,3-dihydro-1H-imidazo[4,5-b]pyridin-1-yl)methyl)cyclo-hexyl)nicotinamide] | < 0.3 µM |
| CCn1nc2ccccc2c1C(=O)N[C@H]1CC[C@H](Cn2c(=O)n(-c3ccc(C(C)O)cc3)c3ccccc32)CC1 (stereo partly shown) [Example 42, 2-ethyl-N-((1r,4r)-4-((3-(4-(1-hydroxyethyl)phenyl)-2-oxo-2,3-dihydro-1H-benzo[d]imidazol-1-yl)methyl)cyclohexyl)-2H-indazole-3-carboxamide] | < 0.3 µM |
| Cc1ncc(Cl)cc1C(=O)N[C@H]1CC[C@H](Cn2c(=O)n(-c3ccc4nc(C)n(C)c4c3)c3ccccc32)CC1 [Example 209, 5-chloro-N-((1r,4r)-4-((2′,3′-dimethyl-2-oxo-3′H-[1,5′-bibenzo[d]imidazol]-3(2H)-yl)methyl)cyclohexyl)-2-methylnicotinamide] | < 0.3 µM |
| CNC(=O)c1ncc(-n2c(=O)n(C[C@H]3CC[C@H](NC(=O)c4cc(Cl)cnc4C(F)F)CC3)c3ccccc32)cc1Cl [Example 555, 3-chloro-5-(3-(((1r,4r)-4-(5-chloro-2-(difluoromethyl)nicotinamido)cyclohexyl)methyl)-2-oxo-2,3-dihydro-1H-benzo[d]imidazol-1-yl)-N-methylpicolinamide] | < 0.3 µM |
| Cn1ccc(-c2cc(-n3c(=O)n(C[C@H]4CC[C@H](NC(=O)c5cc(Cl)cnc5C(F)F)CC4)c4ccccc43)ccn2)n1 [Example 702, 5-chloro-2-(difluoromethyl)-N-((1r,4r)-4-((3-(2-(1-methyl-1H-pyrazol-3-yl)pyridin-4-yl)-2-oxo-2,3-dihydro-1H-benzo[d]imidazol-1-yl)methyl)cyclohexyl)nicotinamide] | < 0.3 µM |
| Cc1ncc(Cl)cc1C(=O)N[C@H]1CC[C@H](Cn2c(=O)n(-c3ccc4c(Cl)n[nH]c4c3)c3ccccc32)CC1 [Example 210, 5-chloro-N-((1r,4r)-4-((3-(3-chloro-1H-indazol-6-yl)-2-oxo-2,3-dihydro-1H-benzo[d]imidazol-1-yl)methyl)cyclohexyl)-2-methylnicotinamide] | < 0.3 µM |
| Cc1ncc(Cl)cc1C(=O)N[C@H]1CC[C@H](Cn2c(=O)n(-c3cnc4c(c3)nnn4C)c3ccccc32)CC1 [Example 275, 5-chloro-2-methyl-N-((1r,4r)-4-((3-(3-methyl-3H-[1,2,3]triazolo[4,5-b]pyridin-6-yl)-2-oxo-2,3-dihydro-1H-benzo [d]imidazol-1-yl)methyl)cyclohexyl)nicotinamide] | < 0.3 µM |
| O=C(N[C@H]1CC[C@H](Cn2c(=O)n(-c3ccc(N4CCNC4=O)nc3)c3ccccc32)CC1)c1cc(Cl)cnc1C(F)(F)F [Example 640, 5-chloro-N-((1r,4r)-4-((2-oxo-3-(6-(2-oxoimidazolidin-1-yl)pyridin-3-yl)-2,3-dihydro-1H-benzo[d]imidazol-1-yl)methyl)cyclohexyl)-2-(trifluoromethyl) nicotinamide] | < 0.3 µM |
| Cc1cc(OCCO)ncc1-n1c(=O)n(C[C@H]2CC[C@H](NC(=O)c3cc(Cl)cnc3C(F)(F)F)CC2)c2ccccc21 [Example 357, 5-chloro-N-((1r,4r)-4-((3-(6-(2-hydroxyethoxy)-4-methylpyridin-3-yl)-2-oxo-2,3-dihydro-1H-benzo[d]imidazol-1-yl)methyl)cyclohexyl)-2-(trifluoromethyl)nicotinamide] | < 0.3 µM |
| O=C(N[C@H]1CC[C@H](Cn2c(=O)n(-c3ccc(O[C@H]4CCOC4)nc3)c3ccccc32)CC1)c1cc(Cl)cnc1C(F)F [Example 430, 5-chloro-2-(difluoromethyl)-N-((1S,4r)-4-((2-oxo-3-(6-(((S)-tetrahydrofuran-3-yl)oxy)pyridin-3-yl)-2,3-dihydro-1H-benzo[d]imidazol-1-yl)methyl)cyclohexyl)nicotinamide] | < 0.3 µM |
| Cc1ncc(Cl)cc1C(=O)N[C@H]1CC[C@H](Cn2c(=O)n(-c3cncc(N4CCOCC4)c3)c3ccccc32)CC1 [Example 413, 5-chloro-2-methyl-N-((1r,4r)-4-((3-(5-morpholinopyridin-3-yl)-2-oxo-2,3-dihydro-1H-benzo[d]imidazol-1-yl)methyl)cyclohexyl)nicotinamide] | < 0.3 µM |
| O=C(N[C@H]1CC[C@H](Cn2c(=O)n(-c3ccc(NC4COC4)nc3)c3ccccc32)CC1)c1cc(Cl)cnc1C(F)F [Example 481, 5-chloro-2-(difluoromethyl)-N-((1r,4r)-4-((3-(6-(oxetan-3-ylamino)pyridin-3-yl)-2-oxo-2,3-dihydro-1H-benzo [d]imidazol-1-yl)methyl)cyclohexyl)nicotinamide] | < 0.3 µM |
